One data set has as its system cholesterol biosynthesis. In words: In vivo test to measure inhibition of oxido-squalene cyclase / cholesterol biosynthesis in the rat. The settings on record: dosed at 2 mg.kg^−1, oral, rat liver. How it is done: (b) In vivo Test to Measure Inhibition of Oxido-squalene Cyclase
The ability of a compound to inhibit oxido-squalene cyclase and/or inhibit cholesterol biosynthesis may be assessed by a routine laboratory procedure carried out in the rat. The test involves administration of the compound to rats on a reversed lighting regimen. Female rats (35-55 g) are housed in reverse lighting conditions (red light from 0200 h-[…]) for a period of about 2 weeks prior to test. Animals are allowed free access to chow and drinking water throughout this period. At test, animals should weigh 100-140 g. The rats are dosed orally with the compound (typically 10-50 mg/kg) formulated in a polyethylene glycol/hydroxypropylmethyl cellulose mix. After 1 hour the rats are given triturated sodium mevalonate (15 μCi.kg^−1) intraperitoneally. Two hours after administration of the compound the rats are terminated and a piece of liver removed and weighed. The tissue is saponified at 80° C. for 2 hours in an ethanolic/potassium hydroxide solution (80% w/v aqueous KOH diluted 1:10 with ethanol). Water (2 ml) is added and the mixture extracted with iso-hexane (2×5 ml). The organic extracts are combined, evaporated to dryness under a stream of nitrogen and the residue is dissolved in a mixture of acetonitrile/iso-propanol (300 μl). […] The radio-label content of each fraction is assessed using a radio chemical flow detector. […]

The target in data set [1] is T1, microsomal oxido-squalene cyclase (Rattus norvegicus, UniProt P48450).
T1 construct: Microsomes are prepared from rat liver according to methods known in the art; from tissue; host or cells: rat liver microsomes
T1 sequence (P48450 1-733): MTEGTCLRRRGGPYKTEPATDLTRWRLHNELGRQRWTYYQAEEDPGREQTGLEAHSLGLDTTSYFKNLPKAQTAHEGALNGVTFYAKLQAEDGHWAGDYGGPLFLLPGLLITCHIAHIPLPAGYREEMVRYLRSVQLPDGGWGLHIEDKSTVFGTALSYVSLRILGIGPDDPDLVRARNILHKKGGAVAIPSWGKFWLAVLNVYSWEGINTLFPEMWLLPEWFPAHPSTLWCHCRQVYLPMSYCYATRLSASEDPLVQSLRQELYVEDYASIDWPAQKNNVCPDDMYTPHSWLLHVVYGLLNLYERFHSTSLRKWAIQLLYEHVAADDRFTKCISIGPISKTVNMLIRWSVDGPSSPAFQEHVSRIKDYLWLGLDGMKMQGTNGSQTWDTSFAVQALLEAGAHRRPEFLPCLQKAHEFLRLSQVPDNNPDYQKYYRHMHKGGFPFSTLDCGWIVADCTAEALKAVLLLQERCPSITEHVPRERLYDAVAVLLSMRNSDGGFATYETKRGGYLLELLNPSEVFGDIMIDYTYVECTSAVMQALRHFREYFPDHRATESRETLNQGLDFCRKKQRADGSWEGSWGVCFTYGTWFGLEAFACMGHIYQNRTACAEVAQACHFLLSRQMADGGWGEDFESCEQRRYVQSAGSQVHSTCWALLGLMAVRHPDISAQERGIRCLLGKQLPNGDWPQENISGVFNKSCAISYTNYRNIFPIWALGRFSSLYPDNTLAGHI
In words: In vitro test to measure inhibition of oxido-squalene cyclase (rat liver microsomes). It is filed as biochemical. The settings on record: concentration of 0.01 μM. How it is done:
(a) In vitro Test to Measure Inhibition of Oxido-squalene Cyclase
This test measures the inhibition of microsomal oxido-squalene cyclase in vitro by compounds at set concentrations in the incubation medium.
Microsomes are prepared from rat liver according to methods known in the art, for example, the method described in published European Patent Application No 324,421 and stored in liquid nitrogen prior to assay. Assay vials are kept at 37° C. throughout the incubation. The microsomes typically contain 15-20 mg of protein per ml of microsomes. For the assay, 1 ml of microsomes are diluted by the addition of 722 μl of 50 mM phosphate buffer pH 7.4.
Phosphate buffered Tween® 80 (polyoxyethylene sorbitan […]) is prepared by adding 0.1 g Tween® 80 to 100 ml of 50 mM phosphate buffer.
A stock solution of oxido-squalene is made up as a solution in ethanol (0.65 mg.ml.^−1). 18 μl of radio-labelled oxido-squalene (1 μCi.ml^−1) is evaporated to dryness under a stream of nitrogen and redissolved in 1 ml of ethanol and 1 ml of the stock solution of oxido-squalene is added.
The test compound is dissolved in dimethyl sulphoxide to give a 10^−1M stock solution. […]
The samples are then placed in a water bath at 80° C. for 2 hours to saponify. […] Reaction rate is measured as the conversion of oxido-squalene to lanosterol, and the effects of test compounds are expressed as an inhibition of this process.
Background: Liver microsomes are vesicles of endoplasmic reticulum, rich in cytochrome P450 enzymes.

The structures appear in SMILES notation.

Consider `O=C(C1CCN(c2ccncc2Cl)CC1)N1CCN(S(=O)(=O)c2ccc(Br)cc2)CC1` [Example 1], for which, in the data set with cholesterol biosynthesis, the “inhibition of rat cholesterol biosynthesis” value was “about 79%”. Moreover, the “inhibition of rat microsomal oxido-squalene cyclase” value in data set [1] is recorded as “about 79%”.

By melting point is commonly meant the temperature of the solid-liquid transition. As for `O=C(C1CCN(c2ccncc2F)CC1)N1CCN(S(=O)(=O)c2ccc(Br)cc2)CC1`, the melting point was 192 °C.

Source of the values: US6440972B1, “Heterocyclic compounds useful as oxido-squalene cyclase inhibitors” (Zeneca Limited, priority 1997, dated 2002).
